This is an account of results in ChEMBL document CHEMBL1135136, “Carbonic anhydrase inhibitors. Preparation of potent sulfonamides inhibitors incorporating bile acid tails” (Bioorg Med Chem Lett, 2002).

For assay [1], the target named is Carbonic anhydrase 1 (Homo sapiens, UniProt P00915).
Description: Inhibitory activity against human recombinant carbonic anhydrase I (CA1)
Assay [2] concerns the target Carbonic anhydrase 2 (Homo sapiens, UniProt P00918).
Description: Inhibitory activity against human recombinant carbonic anhydrase II (CA2)
The target of assay [3] is T1, Carbonic anhydrase 4 (Bos taurus, UniProt Q95323).
T1 sequence (Q95323 whole entry): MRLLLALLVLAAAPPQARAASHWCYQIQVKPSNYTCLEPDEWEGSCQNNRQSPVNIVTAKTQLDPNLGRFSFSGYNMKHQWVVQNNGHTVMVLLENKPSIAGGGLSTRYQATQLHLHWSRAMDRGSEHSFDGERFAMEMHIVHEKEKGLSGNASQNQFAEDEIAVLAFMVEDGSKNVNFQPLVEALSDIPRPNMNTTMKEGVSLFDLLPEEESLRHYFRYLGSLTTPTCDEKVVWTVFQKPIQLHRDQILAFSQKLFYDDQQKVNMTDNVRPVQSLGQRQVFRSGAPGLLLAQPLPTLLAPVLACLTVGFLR
Description: Inhibitory activity against bovine carbonic anhydrase IV (CA4), obtained from bovine lung microsomes

Chain of Carbonic anhydrase 1 (P00915 whole entry): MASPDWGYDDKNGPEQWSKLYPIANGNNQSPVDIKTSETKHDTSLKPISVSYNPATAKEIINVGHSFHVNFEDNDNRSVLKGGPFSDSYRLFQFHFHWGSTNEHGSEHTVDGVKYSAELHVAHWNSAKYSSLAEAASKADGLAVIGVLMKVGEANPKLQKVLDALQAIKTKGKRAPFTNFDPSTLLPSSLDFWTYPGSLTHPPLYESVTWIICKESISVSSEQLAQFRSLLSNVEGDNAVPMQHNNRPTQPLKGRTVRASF

Turning to `C[C@H](CCC(=O)NCCc1ccc(S(N)(=O)=O)cc1)[C@H]1CC[C@H]2[C@@H]3[C@@H](O)C[C@@H]4C[C@H](O)CC[C@]4(C)[C@H]3CC[C@]12C`, the Ki in assay [1] is 0.295 µM; in assay [2] it was 0.014 µM; in assay [3] it was 0.034 µM.
Consider `C[C@H](CCC(=O)OCc1ccc(S(N)(=O)=O)cc1)[C@H]1CC[C@H]2[C@@H]3CC[C@@H]4C[C@H](O)CC[C@]4(C)[C@H]3CC[C@]12C`, for which the results for the Ki in assay [1], in assay [2] and in assay [3] were 0.8 µM, 0.092 µM and 0.313 µM, respectively.
`C[C@H](CCC(=O)Nc1ccc(S(N)(=O)=O)cc1F)[C@H]1CC[C@H]2[C@@H]3[C@H](O)C[C@@H]4C[C@H](O)CC[C@]4(C)[C@H]3C[C@H](O)[C@]12C`: the figures for the Ki in assay [1], in assay [2] and in assay [3] were 1.28 µM, 0.05 µM and 0.133 µM, respectively.
For `C[C@H](CCC(=O)Nc1c(S(N)(=O)=O)cc(S(N)(=O)=O)c(Cl)c1Cl)[C@H]1CC[C@H]2[C@@H]3[C@@H](O)C[C@@H]4C[C@H](O)CC[C@]4(C)[C@H]3CC[C@]12C`, in that order: 0.059 µM, 0.01 µM and 0.029 µM.
For `C[C@H](CCC(=O)Nc1ccccc1S(N)(=O)=O)[C@H]1CC[C@H]2[C@@H]3CC[C@@H]4C[C@H](O)CC[C@]4(C)[C@H]3C[C@H](O)[C@]12C`, in that order: 20.1 µM, 0.28 µM and 0.975 µM.
For `C[C@H](CCC(=O)Nc1ccc(S(N)(=O)=O)cc1)[C@H]1CC[C@H]2[C@@H]3[C@H](O)C[C@@H]4C[C@H](O)CC[C@]4(C)[C@H]3C[C@H](O)[C@]12C`, in that order: 21 µM, 0.21 µM and 0.43 µM.
Take `C[C@H](CCC(=O)OCCOc1ccc2nc(S(N)(=O)=O)sc2c1)[C@H]1CC[C@H]2[C@@H]3[C@H](O)C[C@@H]4C[C@H](O)CC[C@]4(C)[C@H]3CC[C@]12C`: the inhibition constant (Ki) in assay [1] was determined as 0.044 µM; in assay [2], 0.0052 µM; in assay [3], 0.009 µM.
`C[C@H](CCC(=O)Nc1ccc(S(N)(=O)=O)cc1Cl)[C@H]1CC[C@H]2[C@@H]3[C@H](O)C[C@@H]4C[C@H](O)CC[C@]4(C)[C@H]3CC[C@]12C`: the figures for the Ki in assay [1], in assay [2] and in assay [3] were 0.95 µM, 0.08 µM and 0.15 µM, respectively.
For `C[C@H](CCC(=O)NCCC(=O)Nc1nnc(S(N)(=O)=O)s1)[C@H]1CC[C@H]2[C@@H]3CC[C@@H]4C[C@H](O)CC[C@]4(C)[C@H]3C[C@H](O)[C@]12C`, in that order: 0.2 µM, 0.0021 µM and 0.03 µM.
With `C[C@H](CCC(=O)Nc1cccc(S(N)(=O)=O)c1)[C@H]1CC[C@H]2[C@@H]3[C@H](O)C[C@@H]4C[C@H](O)CC[C@]4(C)[C@H]3CC[C@]12C`, the figures for the Ki in assay [1], in assay [2] and in assay [3] were 21.4 µM, 0.21 µM and 1.25 µM, respectively.
Turning to `C[C@H](CCC(=O)OCCc1ccc(S(N)(=O)=O)cc1)[C@H]1CC[C@H]2[C@@H]3[C@H](O)C[C@@H]4C[C@H](O)CC[C@]4(C)[C@H]3CC[C@]12C`, the Ki was determined as 1.1 µM in assay [1], 0.09 µM in assay [2] and 0.32 µM in assay [3].
For `C[C@H](CCC(=O)Oc1ccc2nc(S(N)(=O)=O)sc2c1)[C@H]1CC[C@H]2[C@@H]3CC[C@@H]4C[C@H](O)CC[C@]4(C)[C@H]3CC[C@]12C`, in that order: 0.04 µM, 0.002 µM and 0.009 µM.
On the same counts, the results for `C[C@H](CCC(=O)/N=c1\sc(S(N)(=O)=O)nn1C)[C@H]1CC[C@H]2[C@@H]3C(=O)C[C@@H]4CC(=O)CC[C@]4(C)[C@H]3CC(=O)[C@]12C` are 0.029 µM, 0.001 µM and 0.008 µM.
Consider `C[C@H](CCC(=O)/N=c1\sc(S(N)(=O)=O)nn1C)[C@H]1CC[C@H]2[C@@H]3[C@@H](O)C[C@@H]4C[C@H](O)CC[C@]4(C)[C@H]3CC[C@]12C`, for which the Ki in assay [1] was 0.054 µM; in assay [2], 0.002 µM; in assay [3] it was 0.017 µM.
For `C[C@H](CCC(=O)Nc1ccccc1S(N)(=O)=O)[C@H]1CC[C@H]2[C@@H]3CC[C@@H]4C[C@H](O)CC[C@]4(C)[C@H]3CC[C@]12C`, in that order: 9.2 µM, 0.27 µM and 0.75 µM.
As for `C[C@H](CCC(=O)OCc1ccc(S(N)(=O)=O)cc1)[C@H]1CC[C@H]2[C@@H]3CC[C@@H]4C[C@H](O)CC[C@]4(C)[C@H]3C[C@H](O)[C@]12C`, the Ki amounted to 1 µM in assay [1], 0.106 µM in assay [2] and 0.35 µM in assay [3].
For `C[C@H](CCC(=O)/N=c1\sc(S(N)(=O)=O)nn1C)[C@H]1CC[C@H]2[C@@H]3CC[C@@H]4C[C@H](O)CC[C@]4(C)[C@H]3CC[C@]12C`, the Ki is 0.205 µM in assay [1], 0.008 µM in assay [2] and 0.021 µM in assay [3].
On the same counts, the results for `C[C@H](CCC(=O)OCCc1ccc(S(N)(=O)=O)cc1)[C@H]1CC[C@H]2[C@@H]3C(=O)C[C@@H]4CC(=O)CC[C@]4(C)[C@H]3CC(=O)[C@]12C` are 0.415 µM, 0.05 µM and 0.123 µM.
For `C[C@H](CCC(=O)NCc1ccc(S(N)(=O)=O)cc1)[C@H]1CC[C@H]2[C@@H]3CC[C@@H]4C[C@H](O)CC[C@]4(C)[C@H]3CC[C@]12C`, in that order: 0.91 µM, 0.048 µM and 0.083 µM.
For `C[C@H](CCC(=O)Nc1ccc(S(N)(=O)=O)cc1F)[C@H]1CC[C@H]2[C@@H]3CC[C@@H]4C[C@H](O)CC[C@]4(C)[C@H]3CC[C@]12C`, in that order: 0.36 µM, 0.029 µM and 0.036 µM.
For `C[C@H](CCC(=O)OCc1ccc(S(N)(=O)=O)cc1)[C@H]1CC[C@H]2[C@@H]3C(=O)C[C@@H]4CC(=O)CC[C@]4(C)[C@H]3CC(=O)[C@]12C`, the inhibition constant (Ki) in assay [1] is 0.45 µM; in assay [2] it was 0.071 µM; in assay [3] it was 0.2 µM.
As for `C[C@H](CCC(=O)Nc1ccc(S(N)(=O)=O)cc1F)[C@H]1CC[C@H]2[C@@H]3C(=O)C[C@@H]4CC(=O)CC[C@]4(C)[C@H]3CC(=O)[C@]12C`, the Ki turned out to be 0.21 µM in assay [1], 0.015 µM in assay [2] and 0.028 µM in assay [3].
As to `C[C@H](CCC(=O)NCc1ccc(S(N)(=O)=O)cc1)[C@H]1CC[C@H]2[C@@H]3[C@@H](O)C[C@@H]4C[C@H](O)CC[C@]4(C)[C@H]3CC[C@]12C`, the Ki in assay [1] was 0.55 µM; in assay [2], 0.021 µM; in assay [3], 0.04 µM.
In the case of `C[C@H](CCC(=O)Nc1ccc(S(N)(=O)=O)cc1I)[C@H]1CC[C@H]2[C@@H]3CC[C@@H]4C[C@H](O)CC[C@]4(C)[C@H]3C[C@H](O)[C@]12C`, the Ki amounted to 0.415 µM in assay [1], 0.047 µM in assay [2] and 0.11 µM in assay [3].
On the same counts, the results for `C[C@H](CCC(=O)NCCc1ccc(S(N)(=O)=O)cc1)[C@H]1CC[C@H]2[C@@H]3CC[C@@H]4C[C@H](O)CC[C@]4(C)[C@H]3CC[C@]12C` are 0.65 µM, 0.041 µM and 0.07 µM.

As a reminder, the Ki is the equilibrium dissociation constant of an inhibitor or competing ligand from its target.
